Here are results for eleven molecules from patent publication US9714213B2, “4-aminomethylbenzoic acid derivative” (TOA EIYO LTD., priority 2013, dated 2017).

Assay [1] concerns rat ventral aorta. As to the kind of experiment: Blood vessel relaxation activity, phenylephrine-contracted rat ventral aorta ring specimen. Conditions: relaxation of 1 μmol/L phenylephrine contraction; EC50 without ODQ / EC50 with 10 μmol/L ODQ. On the procedure:
A representative compound of the present invention was assayed for blood vessel relaxation activity according to the Test Example described below. In the assay, a rat (male, SD) was phlebotomized from the upper part of the heart under pentobarbital (30 mg/kg) anesthesia, and the ventral aorta was extracted. The connective tissue adhering around the blood vessel in the ventral aorta was removed in an ice-cooled Krebs-Henseleit solution (KH solution) (118 mmol/L sodium chloride, 4.7 mmol/L potassium chloride, 1.2 mmol/L magnesium sulfate, 1.2 mmol/L potassium dihydrogenphosphate, 25 mmol/L sodium hydrogen carbonate, 2.5 mmol/L calcium chloride and 10 mmol/L glucose, pH 7.4). Then, a ring specimen of 2 mm length was prepared, and fixed in 5 mL organ bath filled with the KH solution. The KH solution was maintained at 37° C., and a mixed gas of 95% O2 and 5% CO2 was ventilated. The specimen was stabilized with 1 g of the resting tension for 1 hour. In the meantime, the KH solution was exchanged twice. The tension of the specimen was recorded with a multichannel recorder through a pickup and an amplifier. After stabilization of the specimen, contraction was induced with 1 μmol/L phenylephrine (Phe), and cumulative administration of each compound (0.001, 0.01, 0.03, 0.1, 0.3, 1, 3, 10, 30, 100, 1000, 10000 nmol/L) was carried out. In the case of evaluation at the time of containing ODQ, 10 μmol/L ODQ was added 10 minutes before administration of Phe, and similar evaluation was performed.
EC50 value was calculated by Four-parameter Logistic Model with Assay Explorer (Accelrys, Inc.). Meanwhile, the solution of the test compound was prepared by dissolving the compound in DMSO to prepare solutions having the concentration of each test compound 1000 times higher than the final concentration.

Assay [2] concerns the target T1, human sGC (Homo sapiens, UniProt Q02153).
T1 construct: expressed in transfected cells; host or cells: CHO-K1 (Chinese hamster ovary) cells
T1 sequence (Q02153 1-619): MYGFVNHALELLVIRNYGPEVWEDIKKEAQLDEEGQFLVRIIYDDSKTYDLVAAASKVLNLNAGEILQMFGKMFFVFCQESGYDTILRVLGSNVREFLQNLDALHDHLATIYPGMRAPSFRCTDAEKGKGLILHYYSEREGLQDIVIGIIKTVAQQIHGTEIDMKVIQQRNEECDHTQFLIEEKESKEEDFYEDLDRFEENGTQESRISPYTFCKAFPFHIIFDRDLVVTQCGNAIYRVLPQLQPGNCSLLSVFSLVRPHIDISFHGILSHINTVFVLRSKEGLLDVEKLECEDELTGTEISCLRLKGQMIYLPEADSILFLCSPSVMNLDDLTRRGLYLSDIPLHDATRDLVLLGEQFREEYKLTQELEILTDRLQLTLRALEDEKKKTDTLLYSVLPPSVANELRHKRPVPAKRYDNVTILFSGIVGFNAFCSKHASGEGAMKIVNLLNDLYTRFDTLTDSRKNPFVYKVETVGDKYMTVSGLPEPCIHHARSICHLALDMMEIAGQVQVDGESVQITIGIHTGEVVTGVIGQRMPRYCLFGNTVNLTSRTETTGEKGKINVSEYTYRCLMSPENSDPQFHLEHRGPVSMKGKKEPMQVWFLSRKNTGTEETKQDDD
T1 sequence (Q02108 1-690 partner): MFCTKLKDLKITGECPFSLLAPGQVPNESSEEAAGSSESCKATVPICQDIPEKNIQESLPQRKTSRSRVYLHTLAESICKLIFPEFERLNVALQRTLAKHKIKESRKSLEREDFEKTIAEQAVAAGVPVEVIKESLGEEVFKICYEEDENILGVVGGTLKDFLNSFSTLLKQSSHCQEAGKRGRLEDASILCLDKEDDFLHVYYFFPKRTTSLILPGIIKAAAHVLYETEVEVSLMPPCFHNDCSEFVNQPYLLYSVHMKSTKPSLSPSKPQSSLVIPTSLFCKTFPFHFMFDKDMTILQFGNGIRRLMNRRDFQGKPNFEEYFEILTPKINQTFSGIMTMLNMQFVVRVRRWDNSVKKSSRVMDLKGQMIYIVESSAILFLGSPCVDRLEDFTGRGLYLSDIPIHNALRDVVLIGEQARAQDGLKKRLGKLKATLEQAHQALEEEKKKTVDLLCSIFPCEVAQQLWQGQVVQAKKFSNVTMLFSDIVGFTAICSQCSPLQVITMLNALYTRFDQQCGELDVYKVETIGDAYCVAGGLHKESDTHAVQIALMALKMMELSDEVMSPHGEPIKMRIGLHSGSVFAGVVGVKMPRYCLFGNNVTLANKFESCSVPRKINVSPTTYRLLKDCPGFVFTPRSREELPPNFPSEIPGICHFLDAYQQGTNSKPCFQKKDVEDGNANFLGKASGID
The experiment in a line: Maximum effect of sGC activation (intracellular Ca2+, Fura2-AM) in CHO-K1 cells stably expressing human sGC and mouse CNGA2. It is filed as cell-based. Conditions: increase rate of sGC activity vs DMSO control, test compound 10 μmol/L. The method, then: For the assay, chinese hamster ovary cells (CHO-K1 cells) stably expressing both α and β subunits of human sGC and mouse cyclic nucleotide-gated channel (CNGA2) were used.
The CHO-K1 cells stably expressing human sGC and mouse CNGA2 was cultured at 37° C. on F-12 medium containing 10% (v/v) fetal bovine serum (FBS), penicillin (100 U/mL), streptomycin (100 μg/mL), G418 (250 μg/mL) and Zeocin (250 μg/mL). The cells were suspended in a culture medium, seeded on a 96 well plate, and then cultured at 37° C. for 24 hours. The cells were washed with Assay buffer 1 (140 mmol/L sodium chloride, 5 mmol/L potassium chloride, 0.5 mmol/L magnesium chloride, 0.01 mmol/L calcium chloride, 10 mmol/L glucose, 0.4 mmol/L magnesium sulfate, 10 mmol/L 4-(2-hydroxyethyl)piperazin-1-ylethanesulfonic acid and 125 μmol/L sulfinpyrazone, pH 7.4), and then added a solution containing Fura2-AM, a fluorescent Ca^2+ indicator, in Assay buffer 1 at […] concentration thereto as an indicator solution, and cultured at 37° C. for 60 minutes. The culture medium was removed, and the cells were washed with Assay buffer 1, and then added a solution containing the test compound thereto, and cultured at room temperature for 10 minutes. A plate was placed onto a fluorometer (FlexStation II, Molecular Devices), and the intracellular calcium concentration was determined as the ratio of fluorescent intensity, obtained from measurement using 340 nm and 380 nm as excitation wavelength and 510 nm as detection wavelength.
The solution of the test compound was prepared by dissolving each test compound in DMSO at 10 mmol/L, and then diluting the solution for the test concentration at 10 μmol/L with Assay buffer (140 mmol/L sodium chloride, 5 mmol/L potassium chloride, 0.5 mmol/L magnesium chloride, 1 mmol/L calcium chloride, 10 mmol/L glucose, 0.4 mmol/L magnesium sulfate, 10 mmol/L 4-(2-hydroxyethyl)piperazin-1-ylethanesulfonic acid, […] sulfinpyrazone, 100 μmol/L isobutyl methyl xanthine, and 10 μmol/L 1H-[1,2,4]-oxadiazol[4,3-a]quinoxaline-1-one (hereinafter, ODQ), pH 7.4). The evaluation in the absence of ODQ was performed similarly, except that ODQ was not added to Assay buffer 2. As a control solution, a DMSO solution was used instead of the test compound solution.
The activity of the test compound defined as the increase rate of the sGC activity (%) at the time of adding the solution of the test compound with respect to the sGC activity at the time of adding the control solution, was calculated by dividing the fluorescent intensity ratio at the time of adding the test compound by the fluorescent intensity ratio of the control solution, and subtracting the sGC activity at the time of adding the control solution (100%).
If sGC is activated in this assay, intracellular cGMP concentration increases and accordingly intracellular Ca^2+ concentration is increased by opening of CNGA2. Accordingly, sGC activation can be measured as the change of Ca^2+ concentration in the cell. […] Accordingly, it is possible to evaluate maximum sGC activation effect including heme-dependent activation in the absence of ODQ, and also possible to evaluate heme independent sGC activation effect in the presence of ODQ.

Setting [3] is: 10 μmol/L ODQ present, read-out: Emax (%) ODQ+ (Heme-independent).
[4] abbreviates: absence of ODQ, read-out: Emax (%) ODQ− (Heme-dependent).

Read-outs that look alike come from different tables or passages of the source.

For `O=C(O)CCCCN(Cc1ccc(C(=O)O)cc1)CC(OCc1ccc(CCc2ccccc2)cc1)c1ccccc1` (stereo not drawn) [Example 2, 4-{[N-(4-Carboxybutyl)-N-[2-[4-(2-phenylethyl)benzyloxy]-2-phenylethyl]amino]methyl}benzoic acid], the “EC50 Ratio (ODQ−/ODQ+)” value in assay [1] worked out at 3.26. For the same molecule, the values for the Emax at 10 µM in assay [2] (setting [3]) and in assay [2] (setting [4]) were 102% and 130%, respectively.

As to `CC(C)(CCCN(Cc1ccc(C(=O)O)cc1)CC(OCc1ccc(CCc2ccccc2)cc1)c1ccccc1)C(=O)O` (stereo not drawn) [Example 16, 4-{[N-(4-Carboxy-4-methylpentyl)-N-[2-[4-(2-phenylethyl)benzyloxy]-2-phenylethyl]amino]methyl}benzoic acid], in assay [1], the “EC50 Ratio (ODQ−/ODQ+)” value was determined as 8.31. The Emax at 10 µM in assay [2] (setting [3]) is 132%; in assay [2] (setting [4]), 92.4%.

For the molecule `O=C(O)CCCCN(Cc1ccc(C(=O)O)cc1)CC(OCc1ccc(CCc2ccccc2)cc1)c1cccs1` (stereo not drawn) [Example 19], the “EC50 Ratio (ODQ−/ODQ+)” value in assay [1] stood at 6.20. The Emax at 10 µM was 122% in assay [2] (setting [3]) and 114% in assay [2] (setting [4]).

Consider `Cc1cccc(C(CN(CCCCC(=O)O)Cc2ccc(C(=O)O)cc2)OCc2ccc(CCc3ccccc3)cc2)c1` (stereo not drawn) [Example 23, 4-{[N-(4-Carboxybutyl)-N-[2-(3-methylphenyl)-2-[4-(2-phenylethyl)benzyloxy]ethyl]amino]methyl}benzoic acid], for which the “EC50 Ratio (ODQ−/ODQ+)” value in assay [1] is reported as 6.88. Besides, the maximal response (Emax) at 10 µM was 113% in assay [2] (setting [3]) and 132% in assay [2] (setting [4]).

For `O=C(O)CCCCN(Cc1ccc(C(=O)O)cc1)CC(OCc1ccc(CCc2ccccc2)s1)c1ccccc1` (stereo not drawn) [Example 25, 4-{[N-(4-Carboxybutyl)-N-[2-[5-(2-phenylethyl)thiophen-2-ylmethoxy]-2-phenylethyl]amino]methyl}benzoic acid], the “EC50 Ratio (ODQ−/ODQ+)” value in assay [1] turned out to be 2.61. Also, the Emax at 10 µM in assay [2] (setting [3]) came out at 114%; in assay [2] (setting [4]) it was 130%.

For the molecule `O=C(O)CCCCN(Cc1ccc(C(=O)O)cc1)CC(OCc1ccc(CCc2ccccc2)cc1)c1ccsc1` (stereo not drawn) [Example 26, 4-{[N-(4-Carboxybutyl)-N-[2-[4-(2-phenylethyl)benzyloxy]-2-(3-thienyl)ethyl]amino]methyl}benzoic acid], the “EC50 Ratio (ODQ−/ODQ+)” value in assay [1] amounted to 7.72. For the same molecule, the Emax at 10 µM in assay [2] (setting [3]) stood at 110%; in assay [2] (setting [4]), 92.6%.

With `O=C(O)CCCCN(Cc1ccc(C(=O)O)cc1)CC(OCc1ccc(CCc2ccccc2)cc1)c1ccc(Cl)s1` (stereo not drawn) [Example 27, 4-{[N-(4-Carboxybutyl)-N-[2-[4-(2-phenylethyl)benzyloxy]-2-(5-chloro-2-thienyl)ethyl]amino]methyl}benzoic acid], the “EC50 Ratio (ODQ−/ODQ+)” value in assay [1] came to 2.66. Besides, the Emax at 10 µM in assay [2] (setting [3]) worked out at 118%; in assay [2] (setting [4]), 187%.

Turning to `Cc1ccc(C(CN(CCCCC(=O)O)Cc2ccc(C(=O)O)c(F)c2)OCc2ccc(CCc3ccccc3)cc2)s1` (stereo not drawn) [Example 28, 4-{[N-(4-Carboxybutyl)-N-[2-[4-(2-phenylethyl)benzyloxy]-2-(5-methyl-2-thienyl)ethyl]amino]methyl}-2-fluorobenzoic acid], the “EC50 Ratio (ODQ−/ODQ+)” value in assay [1] worked out at 2.99. The Emax at 10 µM was determined as 114% in assay [2] (setting [3]) and 98% in assay [2] (setting [4]).

In the case of `O=C(O)CCCCN(Cc1ccc(C(=O)O)cc1)C[C@H](OCc1ccc(CCc2ccccc2)cc1)c1cccc(Cl)c1` [Example 29, (−)-4-{[N-(4-Carboxybutyl)-N-[(2R)-2-(3-chlorophenyl)-2-[4-(2-phenylethyl)benzyloxy]ethyl]amino]methyl}benzoic acid], the “EC50 Ratio (ODQ−/ODQ+)” value in assay [1] was found to be 9.66. Besides, the Emax at 10 µM was 110% in assay [2] (setting [3]) and 98.2% in assay [2] (setting [4]).

In the case of `O=C(O)CCCCN(Cc1ccc(C(=O)O)cc1)C[C@H](OCc1ccc(CCc2ccccc2)cc1)c1ccccc1` [Example 32, (−)-4-{[N-(4-Carboxybutyl)-N-[(2R)-2-[4-(2-phenylethyl)benzyloxy]-2-phenylethyl]amino]methyl}benzoic acid], the “EC50 Ratio (ODQ−/ODQ+)” value in assay [1] came out at 7.31. The Emax at 10 µM in assay [2] (setting [3]) stood at 87.7%; in assay [2] (setting [4]), 128%.

For the molecule `O=C(O)CCCCN(Cc1ccc(C(=O)O)cc1)C[C@H](OCc1ccc(Oc2ccc(Cl)cc2)cc1)c1ccccc1` [Example 42, (−)-4-{[N-(4-Carboxybutyl)-N-[(2R)-2-[4-(4-chlorophenyloxy)benzyloxy]-2-phenylethyl]amino]methyl}benzoic acid], the “EC50 Ratio (ODQ−/ODQ+)” value in assay [1] was 8.40. Further, the figures for the Emax at 10 µM in assay [2] (setting [3]) and in assay [2] (setting [4]) were 127% and 143%, respectively.

As a reminder, the Emax is the size of the effect at its maximum, as opposed to the concentration needed.
